Experimental data from patent publication US9861117B2 (priority 2009, dated 2018).
Read-outs that look alike come from different tables or passages of the source.

Key:
Clostridium perfringens [1] = assay type: in vivo; settings: 0-42 day, infected broilers, 1000 ppm in feed
Clostridium perfringens [2] = assay type: cell-based
[3] = Diarrhoea score of weaned piglets fed supplemented feed; settings: 1000 ppm in feed; for Diarrhoea score: average over the total period
Clostridium perfringens [4] = assay type: in vivo, broilers; set-up: Clostridium perfringens counts in jejunum: unit not given here; settings: 1000 ppm in feed; for Clostridium perfringens counts in jejunum: day 13 of age
[5] = Recovery in duodenum, jejunum and ileum of broilers fed supplemented feed; assay type: in vivo; settings: 1000 ppm in feed, day 43 of age, FIG. 3
Source text: Broilers were offered feed supplemented with 1000 ppm of either dodecanoic acid or ethyl dodecanoate throughout the trial. At day 43 of age, 12 birds per treatment were sacrificed and the content of the duodenum, jejunum and ileum was harvested and analysed for levels of ethyl dodecanoate and dodecanoic acid. In FIG. 3 the mean levels are depicted.

[6] = Challenged broilers (10^8 CFU C. perfringens day 9-11)
[7] = Overall (challenged and non-challenged)
[8] = Example 1, FIG. 1, all tested levels, broth, 8 hours

SMILES | Feed conversion ratio (Clostridium perfringens [1]) | Feed intake (Clostridium perfringens [1]) [g/day] | Mortality (Clostridium perfringens [1]) [%] | Weight gain (Clostridium perfringens [1]) [g/day] | Inhibition of growth of Clostridium perfringens (OD) (Clostridium perfringens [2]; Example 2, FIG. 2, at 67 ppm) | Diarrhoea score [3] | Clostridium perfringens counts in jejunum (Clostridium perfringens [4]; [6]) | Clostridium perfringens counts in jejunum (Clostridium perfringens [4]; Non-challenged broilers) | Clostridium perfringens counts in jejunum (Clostridium perfringens [4]; [7]) | Inhibition of growth of Clostridium perfringens (OD) (Clostridium perfringens [2]; [8]) | Inhibition of growth of Clostridium perfringens (OD) (Clostridium perfringens [2]; Example 2, FIG. 2, lowest inclusion level of treatment) | Effect on diarrhoea (in words) ([3]; versus control) | Level recovered in the jejunum [5] | Effect on Clostridium counts in jejunum (in words) (Clostridium perfringens [4]; broilers, versus dodecanoic acid)
CCCCCCCCCCCC(=O)O [dodecanoic acid, reference compound] | 1.636 | 104.3 | 8.333 | 63.78 | not as effective | 46.64 ab | 2.122 | 1.418 | 1.770 |  |  |  |  | 
CCCCCCCCCCCC(=O)OCC [ethyl dodecanoate] | 1.626 | 106.5 | 4.621 | 65.5 |  | 42.41 b | 0.977 | 1.048 | 1.013 | complete inhibition | complete inhibition | significantly reduce diarrhoea | higher than the free fatty acid | overall significant reduction
CCCCCCCC(=O)OC [methyl octanoate] |  |  |  |  |  |  |  |  |  | nearly the same results |  |  |  | 
